Data published in patent EP4458977A1, “SELF-ASSEMBLING PEPTIDE AMPHIPHILES AS RETROVIRAL TRANSDUCTION ENHANCERS” (Max-Planck-Gesellschaft zur Förderung der Wissenschaften …, priority 2023, dated 2024).
Entries after “also recorded” stand apart in the source; their conditions may differ. Where a SMILES comes first, the peptide text is derived from it. Where no end group is shown, it is not given here. [ ]: non-standard residue; d: D form. The star is where a group is joined. Palmitoyl = CCCCCCCCCCCCCCCC(=O)*

Columns and labels:
[1] = ATR-FT-IR determination of β-sheet content; format: physicochemical; conditions: 1 mg/mL in PBS lyophilized; integral at 1630 cm^-1 relative to 1650-1700 cm^-1
Method: ATR-FT-IR: ATR-IR spectra acquisition and the calculation of β-sheet content were conducted according prior art procedures. Briefly, FT-IR spectra of solid samples were recorded after lyophilization of fibril solutions using a Bruker Tensor II spectrometer equipped with a diamond crystal as ATR element with a spectral resolution of 2 cm^-1, each spectrum was an average of 64 scans. The data was processed with Origin software. β-sheet amount was determined by calculating the integral of the peak at 1630 cm-1 (β-sheet) relative to the integral between 1650-1700 cm-1 (native structure) from the 2nd derivative of the FT-IR spectra.

[2] = tested on: HIV-1; conditions: for Infectivity enhancing N fold at 1.3 µM: relative to virus only; for enhancement of HIV-1 infection / transduction (in words): 6.5 µM, 1.3 µM, 0.26 µM;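 for all read-outs here: TZM-bl reporter cells exposed to HIV-1 with peptide fibrils, infection read out as β-galactosidase luminescence, compared with virus alone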
Method: HIV-1 Infection Assay with TZM-bl cells: The effect of peptide fibrils on HIV-1 infection was studied via a luminescence assay for β-galactosidase, which was reported by TZM-bl cells upon infection. The HIV-1 infection assay was conducted in three technical replicates and repeated in three independent experiments unless stated otherwise.

[3] = tested on: HeLa cells; assay: Confocal laser scanning microscopy and degradation study with PA library and HeLa cells; format: cell-based; conditions: for association with cellular membranes: 2 µg added to 20.000 HeLa cells, 30 min
Method: In general, the procedure for determine whether a PA is degraded or not, is conducted by confocal laser scanning microscopy of Proteostat stained PAs which are added to Hela cells (2 µg peptide added to 20.000 cells). Microscopy is conducted at day 0 (d0, after 30 min of incubation) and at day 3 (d3, after 72 h of incubation). The number of aggregates >10 µm^2 is counted via 3D object counter in imaged in an area of 1008 µm × 1008 µm.
A PA is considered to be degradable if the number and the size of aggregates are reduced after 3 days. The efficiency is determined by the percentual degradation (aggregate number at d3 / aggregate number at d0). For the number of aggregation three technical replicates were evaluated for each sample. A large deviation represents a nonhomogeneous spatial distribution of aggregates.
Confocal laser scanning microscopy and degradation study with PA library and HeLa cells: Confocal laser scanning microscopy studies were performed for the visualization of the cell-PA interaction. HeLa cells were seeded one day prior to conducting the assay (20,000/well) in an 8-well IBIDI slide. […] The nucleus of the HeLa cells was stained with Hoechst 33342 (NucBlue™, Thermo Fisher Scientific). The peptide solution mixture was transferred to the HeLa cells and incubated for 30 min at 37°C before washing three times with PBS. […] For the evaluation of aggregate degradation, the samples were further incubated at 37°C for 3 d and analyzed without any additional washing step. […] The number of aggregates were determined by counting aggregates larger than the threshold 10 µm^2 in an area of 1008 × 1008 µm and repeated in three technical triplicates.

[4] = TEM of peptide assemblies (fibril formation / assembly); format: physicochemical; conditions: for TEM morphology (in words): 1 mg/mL in PBS; for Assembly without hydrophob residue: corresponding peptide without hydrophobic moiety; for Assembly: peptide amphiphile
Method: The peptides were predissolved in DMSO to a concentration of 10 mg/mL. The fibril formation was induced by further diluting the solution to a final incubation concentration of 650 µM or 1 mg/mL in PBS as indicated in the text and incubated for 1 d (1 day) at rt (room temperature, 20 °C - 25 °C). Other concentrations as described herein were achieved by further dilution of preformed fibrils.
(§1) Transmission electron microscopy (TEM) measurements, Thioflavin (ThT), zeta-potential measurements for fibril characterization were prepared and conducted according to prior art procedures. […] Fibrils were defined as distinct, if no visible structures could be identified in fluorescence and brightfield microscopy.

[5] = Fluorescence microscopy of ThT-stained fibrils (µm-sized aggregates); format: physicochemical; conditions: 1 mg/mL stained with 50 µM ThT
Method: as §1
Fluorescence microscopy: 1 µL Fibrils (1 mg mL^-1) were stained with 9 µL, 50 µM ThT. 10 µL of the stained fibrils (0.1 mg mL^-1) were placed on a microscopy glass. Fluorescence microscopy measurements were performed on a Leica DMi8 microscope with 10x air objective and equipped with a Leica MC170 HD camera with a filter setting λem = 527/30 nm upon excitation at λex = 480/40 nm) and processed with the Leica LASX software.

| Compound | β-sheet amount [1] | TEM morphology (in words) [4] | fluorescent, µm-sized aggregates (ThT staining) [5] | infectivity enhancement at 1.3 µM concentration compared to virus only infection (in words) [2] | enhancement of HIV-1 infection / transduction (in words) [2] | other results |
| --- | --- | --- | --- | --- | --- | --- |
| CCCCCCCCCCCCCCCC(=O)N[C@@H](C(=O)N[C@@H](C(=O)N[C@@H](C(=O)N[C@H](C)C(=O)N[C@H](C)C(=O)N[C@H](C)C(=O)N[C@H](CCCCN)C(=O)N[C@H](CCCCN)C(=O)N[C@H](CCCCN)C(N)=O)C(C)C)C(C)C)C(C)C [Pat14, C16-vvvaaakkk-NH2] (Palmitoyl-[dV][dV][dV][dA][dA][dA][dK][dK][dK]-NH2) | 49% | fibrillar morphologies | fluorescent, µm-sized aggregates | – | – | enhances infectivity at 1.3 µM concentration, times more efficient compared to virus only infection [2]: 7 times; Infectivity enhancing N fold at 1.3 µM [2]: 7±1 N fold; association with cellular membranes [3]: association with cellular membranes; degradability (in words) ([3]; HeLa cells, 3 days): is not degraded; also recorded: cannot be degraded; also recorded: non-degradable PA; Degradability / % (rel. to initial particles > 10 µm^2) ([3]; HeLa cells, 3 d relative to 30 min): -116%; aggregate number increases ([3]; d3 relative to d0): 116%; Assembly without hydrophob residue [4]: No; Assembly [4]: Yes |
| CCCCCCCCCCCCCCCC(=O)N[C@@H](CCCNC(=N)N)C(=O)N[C@@H](CCCNC(=N)N)C(=O)N[C@@H](Cc1c[nH]c2ccccc12)C(=O)N[C@@H](CCC(N)=O)C(=O)N[C@@H](Cc1c[nH]c2ccccc12)C(=O)N[C@@H](CCCNC(=N)N)C(N)=O [Pat22, C16-RRWQWR-NH2] (Palmitoyl-RRWQWR-NH2) | 0% | fibrillar morphologies | – | does not enhance infectivity | no infectivity enhancement can be observed | Infectivity enhancing N fold at 1.3 µM [2]: 0±0 N fold; association with cellular membranes [3]: no association with cellular membranes; Assembly without hydrophob residue [4]: No; Assembly [4]: Yes |
| CC(C)[C@@H](N)C(=O)N[C@@H](C(=O)N[C@@H](C(=O)N[C@H](C)C(=O)N[C@H](C)C(=O)N[C@H](C)C(=O)N[C@H](CCCCN)C(=O)N[C@H](CCCCN)C(=O)N[C@H](CCCCN)C(N)=O)C(C)C)C(C)C [Pat33, vvvaaakkk-NH2] (H-[dV][dV][dV][dA][dA][dA][dK][dK][dK]-NH2) | 45% | no fibrillar morphologies but amorphous aggregates | no fluorescent, µm-sized aggregates | cannot enhance infectivity | – | – |
| AGGRVK-NH2 [Pat37, AGGRVK-NH2] | 0% | no fibrillar morphologies | no fluorescent, µm-sized aggregates | cannot enhance infectivity | – | – |
| AKAVGK-NH2 [Pat50, AKAVGK-NH2] | 33% | no fibrillar morphologies but amorphous aggregates | no fluorescent, µm-sized aggregates | cannot enhance infectivity | – | – |
| ALAAGKK-NH2 [Pat39, ALAAGKK-NH2] | 0% | no fibrillar morphologies | no fluorescent, µm-sized aggregates | cannot enhance infectivity | – | – |
| AQAKAK-NH2 [Pat35, AQAKAK-NH2] | 29% | no fibrillar morphologies but amorphous aggregates | no fluorescent, µm-sized aggregates | cannot enhance infectivity | – | – |
| AVAKKK-NH2 [Pat40, AVAKKK-NH2] | 29% | no fibrillar morphologies but amorphous aggregates | no fluorescent, µm-sized aggregates | cannot enhance infectivity | – | – |
| GGGSSKKK-NH2 [Pat47] | 10% | no fibrillar morphologies | no fluorescent, µm-sized aggregates | – | not potent enhancers of HIV-1 infection | – |
| GKVGSK-NH2 [Pat49, GKVGSK-NH2] | 4% | no fibrillar morphologies | no fluorescent, µm-sized aggregates | – | not potent enhancers of HIV-1 infection | – |
| IIQKIK-NH2 [Pat34, IIQKIK-NH2] | 31% | no fibrillar morphologies | no fluorescent, µm-sized aggregates | – | not potent enhancers of HIV-1 infection | – |
| KGVPGVGK-NH2 [Pat44] | 22% | fibrillar morphologies | – | do not enhance infectivity | – | TEM morphology (in words) ([4]; listed as KGVPGVGK): unexpectedly forming fibrils by themselves |
| KIISFK-NH2 [Pat51, KIISFK-NH2] | 38% | no fibrillar morphologies | no fluorescent, µm-sized aggregates | – | not potent enhancers of HIV-1 infection | – |
| KYIHQNYTKALAGKLV-NH2 [Pat45] | 34% | no fibrillar morphologies | no fluorescent, µm-sized aggregates | – | not potent enhancers of HIV-1 infection | – |
| LLLKK-NH2 [Pat42, LLLKK-NH2] | 33% | no fibrillar morphologies | no fluorescent, µm-sized aggregates | cannot enhance infectivity | – | – |
| LNGGVKK-NH2 [Pat38, LNGGVKK-NH2] | 0% | no fibrillar morphologies | no fluorescent, µm-sized aggregates | – | not potent enhancers of HIV-1 infection | – |
| RRWQWR-NH2 [Pat41, RRWQWR-NH2] | 0% | amorphous aggregates | – | cannot enhance infectivity | – | association with cellular membranes [3]: no association with cellular membranes |
| VVAAHHH-NH2 [Pat43, VVAAHHH-NH2] | 0% | no fibrillar morphologies | no fluorescent, µm-sized aggregates | – | not potent enhancers of HIV-1 infection | – |
| WEALKK-NH2 [Pat36, WEALKK-NH2] | 31% | no fibrillar morphologies but amorphous aggregates | no fluorescent, µm-sized aggregates | cannot enhance infectivity | – | – |
